Laboratory results published in PMC5666006, “Combating virulence of Gram-negative bacilli by OmpA inhibition” (Scientific Reports, 2017).
Where a SMILES comes first, the peptide text is derived from it. [ ]: non-standard residue; d: D form.

Key:
A. baumannii ATCC 17978 [1] = format: cell-based
Procedure: (§1) In the initial screening, the bactericidal activity of the synthetic peptides and their toxicity on human lung epithelial cells (A549) were evaluated.
(§2) Table S1. MICs of the six hexapeptides for A. baumannii and E. coli.
(§3) Peptides P. aeruginosa PaO1
(§4) MIC: minimal inhibitory concentration

E. coli ATCC 25922 [2] = format: cell-based
Procedure: as §1, §2, §3, §4

P. aeruginosa PaO1 [3] = format: cell-based
Procedure: as §1, §2, §3, §4

[4] = Peptide toxicity, MTT assay; format: cell-based, human; details: human, A549 cells
Procedure: Human type II pneumocyte cell line A549 derived from a human lung carcinoma were obtained from American Type Culture Collection (LGC, UK) and were grown in DMEM medium (Invitrogen, Spain) supplemented with 10% heat-inactivated fetal bovine serum, vancomycin (50 μg/mL), gentamicin (20 μg/mL), amphotericin B (0.25 μg/mL) (Invitrogen, Spain) and 1% HEPES (Invitrogen, Spain) in a humidified incubator, 5% CO2 at 37 °C. A549 cells were routinely passaged every 3–4 days. The cells were seeded 24 h in 96-well plates for cellular viability assay, and in 24 well plates for adhesion and immnunofluorescence assays.
Peptide toxicity. […] Prior the evaluation of the peptides cytotoxicity, A549 cells were washed three times with prewarmed PBS. Then, peptides cytotoxicity was initially assessed quantitatively by monitoring the mitochondrial reduction activity using the MTT assay as described previously. The percentage of […] was calculated from the optical density (OD) as follow: [(OD of treated cells / mean OD of non-treated cell) × 100].
Table S2. Percentages of A549 cellular viability assessed through mitochondrial reduction
activity (MTT assay) in presence of anti-OmpA hexapeptides and control peptides (SXV4 and
COL). COL: colistin. ND: not determined.
Peptides 0.25 mg/mL 0.5 mg/mL 1 mg/mL 5 mg/mL

A. baumannii ATCC 17978 [5] = assay: Bacterial cytotoxicity on A549 cells, MTT assay; format: cell-based; details: A. baumannii ATCC 17978 pretreated with 0.25 or 0.5 mg/mL, 24 h
Procedure: (§5) Bacterial cytotoxicity. […] Prior the evaluation of bacterial cytotoxicity, we firstly removed viable bacteria from A549 cells cultures and washed A549 cells five times with pre-warmed PBS. Then, cellular viability was assessed as indicated above.

E. coli ATCC 25922 [6] = assay: Bacterial cytotoxicity on A549 cells, MTT assay; format: cell-based; details: E. coli ATCC 25922 pretreated with 0.25 or 0.5 mg/mL, 24 h
Procedure: as §5

P. aeruginosa PaO1 [7] = assay: Bacterial cytotoxicity on A549 cells, MTT assay; format: cell-based; details: P. aeruginosa PaO1 pretreated with 0.25 or 0.5 mg/mL, 24 h
Procedure: as §5

[8] = tested on: JPAB01: ompA-deficient ATCC 17978 strain; assay: Bacterial cytotoxicity on A549 cells, MTT assay; format: cell-based, A. baumannii; details: JPAB01, 0.5 mg/mL, 48 h
Procedure: as §5
Figure S5. Cell death induced by A. baumannii ATCC 17978 and JPAB01 strains. A549 cells were infected for 48 h with 10^8 CFU/mL of ATCC 17978 and JPAB01 strains treated with AOA-2 (0 or 0.5 mg/mL). Bacterial cytotoxicity was assessed by monitoring the mitochondrial reduction activity using the MTT assay. Representative results of two independent experiments are shown; data are means ± SEM. JPAB01: ompA-deficient ATCC 17978 strain. *P<0.05: between infected and non-infected cells, #P<0.05: between untreated and treated groups. […]

A. baumannii ATCC 17978 [9] = assay: Time kill curves; format: cell-based; details: 0.25–1 mg/mL
Source text: (§6) Figure S4. Time kill curves of A. baumannii ATCC 17978, P. aeruginosa PaO1, and E. coli
(§7) (also on this page, place not known: Bacterial concentration ( Log CFU/mL) Bacterial concentration ( Log CFU/mL) Bacterial concentration ( Log CFU/mL))

E. coli ATCC 25922 [10] = assay: Time kill curves; format: cell-based; details: 0.25–1 mg/mL
Source text: as §6, §7

P. aeruginosa PaO1 [11] = assay: Time kill curves; format: cell-based; details: 0.25–1 mg/mL
Source text: as §6, §7

P. aeruginosa PaO1 [12] = assay: Murine peritoneal sepsis model; format: in vivo, mouse
Procedure: Murine peritoneal sepsis models with A. baumannii ATCC 17978, P. aeruginosa PaO1 or E. coli ATCC 25922 strains were established by i.p. inoculation of the bacteria. Briefly, mice were inoculated with 0.5 mL of the bacterial suspensions, which were incubated for 20–24 h in LB at 37 °C and mixed in a 1:1 ration with a saline solution containing 10% (w/v) porcine mucin (Sigma, Spain).
The murine peritoneal sepsis models by A. baumannii ATCC 17978, P. aeruginosa PaO1 or E. coli ATCC 25922 strains were established by i.p. inoculation of the bacteria. Briefly, animals were infected i.p. with 0.5 mL of the MLD100 of A. baumannii ATCC 17978, P. aeruginosa PaO1, or E. coli ATCC 25922 strains mixed 1:1 with 10% porcine mucin. […] Fifthy-six mice were randomly ascribed to the following groups: 1). controls (without treatment), and 2). […] Mortality was recorded over 72 h. After death or sacrifice of the mice at the end of the experimental period, aseptic thoracotomies were performed, and blood samples were obtained by cardiac puncture for qualitative blood cultures. The spleen and lungs were aseptically removed and homogenized (Stomacher 80; Tekmar Co., USA) in 2 mL of sterile NaCl 0.9% solution. Ten-fold dilutions of the homogenized spleen and lungs were plated onto Sheep blood agar for quantitative cultures (log CFU/g of spleen or lungs).

[13] = P. aeruginosa PaO1, 10 mg/kg/d i.p., 72 h
[14] = P. aeruginosa PaO1 MLD i.p., 10 mg/kg AOA-2 i.p. 2 h after challenge

In the case of `N=C(N)NCCC[C@@H]1NC(=O)[C@H]2CCCN2C(=O)[C@H](Cc2c[nH]c3ccccc23)NC(=O)[C@H](CCCNC(=N)N)NC(=O)[C@H]2CCCN2C(=O)[C@H](Cc2c[nH]c3ccccc23)NC1=O` [AOA-2] (cyclo(RW[dP]RW[dP])), the MIC (A. baumannii ATCC 17978 [1]) is reported as greater than 500 µg/mL, the MIC (E. coli ATCC 25922 [2]) is reported as greater than 500 µg/mL and the MIC (P. aeruginosa PaO1 [3]) is reported as greater than 500 µg/mL. The viability at 48 h, 250 µg/mL [4] was 98.09 ± 0.27%, the viability at 48 h, 500 µg/mL [4] was 98.33 ± 0.4% and the viability at 48 h, 1000 µg/mL [4] was 98.48 ± 0.55%. For the same compound, the “A549 cell death induced by bacteria (in words)” value (A. baumannii ATCC 17978 [5]) was “prevented cell death”, the “A549 cell death induced by bacteria (in words)” value (E. coli ATCC 25922 [6]) was “failure” and the “A549 cell death induced by bacteria (in words)” value (P. aeruginosa PaO1 [7]) was “prevented cell death”. For the same compound, the “A549 cell death induced by ompA-deficient A. baumannii (in words)” value [8] was “no effect on cell death”, the “bacteriostatic activity (in words)” value (A. baumannii ATCC 17978 [9]) was “poor bacteriostatic activity” and the “bacteriostatic activity (in words)” value (E. coli ATCC 25922 [10]) was “intermediate behaviour”. The “bacteriostatic activity (in words)” value (P. aeruginosa PaO1 [11]) was “relevant bacteriostatic activity”, the “mouse mortality (in words)” value (P. aeruginosa PaO1 [12]; [13]) was “decreased” and the “positive blood cultures (in words)” value (P. aeruginosa PaO1 [12]; [13]) was “decreased”. The “reduced the bacterial load in the lungs” value (P. aeruginosa PaO1 [12]; [14]) was 4.29 log CFU/g and the “reduced the bacterial load in the spleen” value (P. aeruginosa PaO1 [12]; [14]) was 4.04 log CFU/g.
